Data on 2 compounds can be found in PMC6273125, “Antioxidant Activity of 3-[N-(Acylhydrazono)ethyl]-4-hydroxy-coumarins” (Molecules, 2016).

Details of data set [1]: method as in PMID 1322662. As to conditions: cited from earlier work.
The nature of data set [2]: Inhibition of linoleic acid lipid peroxidation induced by AAPH. The note with it: pH 7.4, 37 °C. The text has this: AAPH induced linoleic acid oxidation is based on the inhibition of lipid oxidation and provides a measure of how efficiently antioxidants protect against lipid oxidation in vitro. Oxidation of exogenous linoleic acid by a thermal free radical producer (AAPH) is followed by UV spectrophotometry in a highly-diluted sample [36, 42].
Production of conjugated diene hydroperoxide by oxidation of linoleic acid in an aqueous dispersion is monitored at 234 nm. 2,2′-Azobis(2-amidinopropane) dihydrochloride (AAPH) is used as a free radical initiator. Ten microliters of the 16 mM linoleic acid sodium salt solution was added to the UV cuvette containing 930 µL of […] phosphate buffer, pH 7.4 prethermostated at 37 °C. The oxidation reaction was initiated at 37 °C under air by the addition of 50 μL of 40 mM AAPH solution. Oxidation was carried out in the presence of aliquots (10 μL) of the tested coumarins. In the assay without antioxidant, lipid peroxidation was measured in the presence of the same level of DMSO. The rate of oxidation at 37 °C was monitored by recording the increase in absorption at 234 nm caused by conjugated diene hydroperoxides.

Data set [3] is described as follows: Reducing activity of the DPPH stable free radical (RA%). The note with it: DPPH 0.05 mM in ethanol. The text has this: It is well known that the interaction of the synthesized 3-acetyl-4-hydroxycoumarin N-acylhydrazones 2 with the stable free radical DPPH indicates their radical scavenging ability in an iron-free system. […] Considering the antioxidant activity of 3-acetyl-4-hydroxy coumarin (1) it seems to be higher than the hydrazone derivatives 2a–l in both concentrations and in relation with the time and it is correlated with the presence of 3-acetyl and 4-hydroxy groups in the lactone ring and the possibility of tautomers (A–D) formation as shown in Scheme 2. It has been reported that 3-acetyl-4-hydroxycoumarin mainly exists in endocyclic enol form (B) in polar solvents (methanol, ethanol) and it is well known that enols show antioxidant activity e.g., it has been reported that enolic and phenolic hydroxyl groups is beneficial for curcumin to protect erythrocytes against hemin-induced hemolysis and to protect DNA against AAPH-induced oxidation. The lower results of hydrazones 2a–l, are correlated with their stereochemistry which influence their interaction with DPPH.
To an ethanolic solution of DPPH (0.05 mM) in absolute ethanol the new coumarin derivatives dissolved in DMSO were added (final concentration 50 and 100 µM). The mixture was shaken vigorously and allowed to stand for 20 min or 60 min; absorbance at 517 nm was determined spectrophotometrically against the blank and the percentage of reducing activity (RA) was calculated by the formula: RA% = [(A0 − A1)/A0] × 100 where A0 is the absorbance of blank and A1 is the absorbance of the reaction mixture.
In general terms: The DPPH test is a chemical assay of radical scavenging.

The target in data set [4] is T1, soybean lipoxygenase (LOX) (Glycine max, UniProt P08170).
T1 construct: purchased Sigma Chemical, Co. (St. Louis, MO, USA)
T1 sequence (P08170 1-839): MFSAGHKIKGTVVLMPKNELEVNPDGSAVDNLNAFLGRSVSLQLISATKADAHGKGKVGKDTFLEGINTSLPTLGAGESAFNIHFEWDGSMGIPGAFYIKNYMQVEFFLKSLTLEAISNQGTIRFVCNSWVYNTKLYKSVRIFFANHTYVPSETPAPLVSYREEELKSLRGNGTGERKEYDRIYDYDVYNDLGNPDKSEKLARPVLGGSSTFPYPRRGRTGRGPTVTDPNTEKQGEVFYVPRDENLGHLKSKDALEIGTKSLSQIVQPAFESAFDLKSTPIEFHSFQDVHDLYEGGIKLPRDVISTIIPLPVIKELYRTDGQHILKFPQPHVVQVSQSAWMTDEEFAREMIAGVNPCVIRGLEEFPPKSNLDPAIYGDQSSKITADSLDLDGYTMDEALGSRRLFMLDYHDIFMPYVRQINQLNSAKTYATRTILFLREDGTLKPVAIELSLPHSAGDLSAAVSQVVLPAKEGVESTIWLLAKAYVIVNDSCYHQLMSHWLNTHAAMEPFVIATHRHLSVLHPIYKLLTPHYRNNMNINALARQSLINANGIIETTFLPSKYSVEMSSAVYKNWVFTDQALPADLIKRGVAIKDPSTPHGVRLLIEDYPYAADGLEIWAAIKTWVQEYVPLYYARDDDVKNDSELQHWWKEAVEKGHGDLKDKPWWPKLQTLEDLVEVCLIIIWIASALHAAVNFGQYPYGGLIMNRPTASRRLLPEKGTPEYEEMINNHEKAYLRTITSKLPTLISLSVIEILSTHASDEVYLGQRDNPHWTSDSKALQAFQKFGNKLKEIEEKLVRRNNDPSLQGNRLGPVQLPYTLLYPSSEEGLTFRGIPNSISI
In words: In vitro inhibition of soybean lipoxygenase, UV-absorbance-based enzyme assay. The class given is biochemical. The note with it: soybean lipoxygenase, sodium linoleate, Tris buffer pH 9. The protocol:
The tested compounds dissolved in DMSO were incubated at room temperature with sodium linoleate (100 µL) and 200 µL of enzyme solution (1/9 × 10^−4 w/v in saline) in Tris buffer pH 9. The conversion of sodium linoleate to 13-hydroperoxylinoleic acid at 234 nm was recorded and compared with the appropriate standard inhibitor.

The melting point is the temperature of the solid-liquid transition. The term IC50 denotes the midpoint of a concentration-inhibition curve. A low value points to inhibition by little substance.

On to `O=c1cc(O)c2ccccc2o1` [4-hydroxy coumarin], for which, in data set [1], the antioxidant activity result is given as “not found to present any antioxidant activity”.
Turning to `CC(=NNC(=O)c1ccccc1[N+](=O)[O-])c1c(O)c2ccccc2oc1=O` [2l, 3-{N-[(2′-Nitrobenzoyl)hydrazono]ethyl}-4-hydroxycoumarin], the melting point came out at 219 °C. Further, the “LP 60 s, 100 μM (% inhibition of LP induced by AAPH)” value in data set [2] came to 95 ± 6.2%. Moreover, the “RA%, 50 μM, 20 min” value in data set [3] (compound 50 μM, 20 min) was 6 ± 0.3%. Moreover, the “RA%, 50 μM, 60 min” value in data set [3] (compound 50 μM, 60 min) was found to be 10 ± 0.2%. Besides, in data set [3] (compound 100 µM, 20 min), the “RA%, 100 µM, 20 min” value was 27 ± 2.2%. Also, the “RA%, 100 μM, 60 min” value in data set [3] (compound 100 μM, 60 min) came out at 29 ± 1.0%. The IC50 in data set [4] was 35 ± 0.2 µM.
